Results from patent US9409868B2, “Inhibitors of rho associated protein kinases (ROCK) and methods of use” (H. LEE MOFFITT CANCER CENTER AND RESEARCH INSTITUTE, INC., priority 2012, dated 2016).
Like-named read-outs stand apart in the source and are kept apart here.

Experiments:
ROCK2 [1] = target: T1, ROCK2 (Homo sapiens (Human), UniProt O75116); conditions: Feng et al. 2008; read-out: ROCK2 enzymatic activity IC50 (reported); cited from earlier work
ROCK2 [2] = target: T1, ROCK2; assay: Z-Lyte FRET kinase assay, ROCK2; type: biochemical
Excerpt: (§1) Kinase Assay. A robust FRET-based, enzyme-coupled assay format, Z-Lyte® Kinase Assay Ser/[…] Peptide Kit (Invitrogen, cat. PV3793), was employed in this study to monitor inhibition of ROCK1 (Invitrogen, cat. PV3691) and ROCK2 (Invitrogen, cat. PV3759) enzyme activities. […] The substrate contains both coumarin and fluorescein and only uncleaved […] substrate will undergo FRET. […] A known inhibitor, Y-27632 (Tocris Bioscience, cat. 1254), is used as a control compound.

ROCK1 = ROCK1 (Homo sapiens (Human), UniProt Q13464); assay: Z-Lyte FRET kinase assay, ROCK1; type: biochemical
Chain of ROCK1 (Q13464 whole entry): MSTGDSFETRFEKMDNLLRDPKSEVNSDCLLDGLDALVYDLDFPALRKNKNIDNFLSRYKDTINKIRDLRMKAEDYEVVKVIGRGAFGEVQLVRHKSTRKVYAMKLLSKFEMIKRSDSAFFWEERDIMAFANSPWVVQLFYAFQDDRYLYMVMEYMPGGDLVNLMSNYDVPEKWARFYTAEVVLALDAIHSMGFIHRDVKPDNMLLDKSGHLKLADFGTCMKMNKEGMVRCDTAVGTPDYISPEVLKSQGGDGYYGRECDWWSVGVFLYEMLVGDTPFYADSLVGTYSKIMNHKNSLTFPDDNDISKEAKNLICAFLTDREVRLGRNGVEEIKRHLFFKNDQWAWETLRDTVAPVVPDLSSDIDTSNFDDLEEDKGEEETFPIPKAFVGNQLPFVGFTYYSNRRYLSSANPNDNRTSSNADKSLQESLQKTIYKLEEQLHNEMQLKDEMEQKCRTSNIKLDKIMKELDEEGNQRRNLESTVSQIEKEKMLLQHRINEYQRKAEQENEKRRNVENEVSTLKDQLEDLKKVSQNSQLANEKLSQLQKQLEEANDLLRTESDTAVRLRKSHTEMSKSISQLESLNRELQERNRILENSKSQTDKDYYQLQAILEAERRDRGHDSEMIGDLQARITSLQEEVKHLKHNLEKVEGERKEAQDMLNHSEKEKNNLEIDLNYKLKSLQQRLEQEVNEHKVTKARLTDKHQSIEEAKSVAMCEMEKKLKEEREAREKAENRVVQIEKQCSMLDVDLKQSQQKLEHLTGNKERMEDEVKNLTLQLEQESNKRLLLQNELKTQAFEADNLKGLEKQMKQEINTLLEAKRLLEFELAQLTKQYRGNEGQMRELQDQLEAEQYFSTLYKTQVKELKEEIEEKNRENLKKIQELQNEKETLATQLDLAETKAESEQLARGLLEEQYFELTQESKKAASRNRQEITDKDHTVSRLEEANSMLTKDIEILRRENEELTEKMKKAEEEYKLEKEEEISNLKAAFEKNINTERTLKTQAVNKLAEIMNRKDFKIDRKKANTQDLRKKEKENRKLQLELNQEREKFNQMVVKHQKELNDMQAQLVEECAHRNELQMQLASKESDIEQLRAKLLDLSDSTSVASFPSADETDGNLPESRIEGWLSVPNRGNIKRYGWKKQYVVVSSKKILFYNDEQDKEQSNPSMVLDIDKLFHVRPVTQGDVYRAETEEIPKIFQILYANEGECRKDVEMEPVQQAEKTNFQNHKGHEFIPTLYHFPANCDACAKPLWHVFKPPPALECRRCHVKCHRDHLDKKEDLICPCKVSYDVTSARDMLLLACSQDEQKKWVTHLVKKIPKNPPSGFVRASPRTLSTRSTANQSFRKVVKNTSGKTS
Excerpt: as §1

Aurora-A = Aurora-A (Homo sapiens (Human), UniProt O14965); assay: Aurora-A inhibition (selectivity); type: biochemical; conditions: FIG. 2
Chain of Aurora-A (O14965 whole entry): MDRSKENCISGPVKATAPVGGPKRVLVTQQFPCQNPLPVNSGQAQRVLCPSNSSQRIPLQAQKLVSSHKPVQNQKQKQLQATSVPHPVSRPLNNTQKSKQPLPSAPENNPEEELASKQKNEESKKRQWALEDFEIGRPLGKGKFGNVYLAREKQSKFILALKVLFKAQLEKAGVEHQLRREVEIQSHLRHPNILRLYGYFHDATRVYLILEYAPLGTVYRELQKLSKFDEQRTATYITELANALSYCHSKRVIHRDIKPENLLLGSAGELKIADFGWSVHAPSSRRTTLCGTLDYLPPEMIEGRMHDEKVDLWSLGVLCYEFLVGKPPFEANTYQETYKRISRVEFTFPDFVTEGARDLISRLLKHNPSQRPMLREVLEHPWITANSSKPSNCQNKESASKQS

MDA-MB-231 cells [3] = assay: Matrigel Transwell invasion assay; type: cell-based, human; conditions: for inhibition of invasion (figure legend): FIG. 8
Experimental: Invasion Assay. Invasion assay was performed in Corning Transwell inserts coated with Matrigel. MDA-MB-231 cells were seeded at 3.5_105 and allowed to grow overnight in a 6-well plate. The cells were treated with either vehicle or different doses of RKIs for 24 h. After treatment, the cells were trypsinized, resuspended and plated in the inserts. The bottom chamber contained 20% FBS as the ‘chemoattractant’. The cells were kept in the incubator for 48 h. After incubation, the cells were stained and membrane was quantified.

NIH 3T3 cells = assay: Cell morphology assay (phalloidin staining) in starved NIH 3T3 cells; type: cell-based; parameters: dose or concentration left out as unconfirmed; conditions: starved NIH 3T3, FIG. 6
Experimental: Cell Morphology Assay. NIH 3T3 cells were plated at 8000 cells per well in 8-chamber slide in serum-free media (serum starvation) for 24 h. After serum starvation, the cells were treated with vehicle or the RKIs for 1 h. After treatment, the cells were stimulated with […] LPA, 200 ng/ml bradykinin or 30 ng/ml PDGF for 30 min. After stimulation, the cells were fixed with 4% paraformaldehyde, permeabilized using 0.1% Triton X-100 and stained with Texas-Red phalloidin (Cat no. T7471) (Invitrogen, Eugene, Oreg., USA) and DAPI (40,6 diamidino-2-phenylindole: counterstains DNA) (Cat no. H-1200; Vector Laboratories, Burlingame, Calif., USA). The cells were imaged using Zeiss Upright Fluorescence Microscope.

MDA-MB-231 cells [4] = assay: Wound-healing scratch migration assay; type: cell-based, human; conditions: for inhibition of migration (wound-healing scratch assay): FIG. 8a
Experimental: Wound-Healing-Migration Assay. MDA-MB-231 cells were seeded at 4_105 cells per well in a 6-well plate and allowed to grow overnight at 37 1C and 5% CO2. The cells were starved for 24 h and scratched. The cells were then treated with different concentrations of RKIs in regular growth media for 24 h. Images of the scratch were acquired at 0 h and 24 h.

MDA-MB-231 cells [5] = assay: Soft agar anchorage-independent growth assay; type: cell-based, human
Experimental: Soft Agar Assay. MDA-MB-231 cells were seeded in a 12-well tissue culture plate at 1200 cells per well in regular growth media and 0.3% agar. The cells were treated with different doses of RKI-11 and RKI-18, allowed to grow for 4 weeks, after which the colonies were stained overnight with 1 mg/ml MTT and counted.

ROCK2 [6] = target: T1, ROCK2; conditions: different assay conditions; read-out: ROCK 2 IC50 (previously reported); cited from earlier work
MDA-MB-231 cells [7] = assay: MTT assay, anchorage-dependent proliferation; type: cell-based, human
Experimental: MTT Assay. MTT assay was performed to determine the effects of RKIs on anchoragedependent cell proliferation. Briefly, cells were plated in a 96-well tissue culture plate (1200 cells per well) and incubated for 24 h. After incubation, the cells were treated with vehicle or increasing concentrations of RKI-11 or RKI-18 ([…]). After 72 h incubation, freshly prepared MTT (2 mg/ml) was added to each well and incubated for 3 h. After incubation, the plates were read at 540 nm.

[8] = test system: phosphorylation of MLC2 (ROCK substrate) in MDA-MB-231 cells; assay: Western blot of MLC2 phosphorylation in MDA-MB-231 breast cancer cells; type: cell-based, human; conditions: 1 hr, MDA-MB-231, FIG. 4
Experimental: Western Blot Analysis. MDA-MB-468, MDA-MB-231, MCF-7, DU-145, H460, A549, HT29 and HCT116 cells (ATCC, Rockville, Md., USA) were plated in 6-well tissue culture plate. The cells were then treated next day with different concentrations of the RKIs for 1 h. After incubation, the cells were harvested, lysed, quantified and blotted for P-MLC2 (Cat no. 3671S), total-MLC2 (Cat no. 3672S), P-MEK (S298) (Cat no. 9128S), total-MEK (Cat no. 9122S), P-S6 (Cat no. 2155S), total-S6 (2217S), P-Erk (Cat no. 9101L), total Erk (Cat no. 9102L), P-Akt (Cat no. 9271L), total Akt (Cat no. 9272L) (Cell Signaling, Danvers, Mass., USA) and tubulin (Cat no. 5168) (Sigma, St Louis, Mo., USA) antibodies as described by us previously

MDA-MB-231 cells [9] = assay: Apoptosis by caspase 3 activation and PARP cleavage; type: cell-based, human; conditions: up to 30 mM (so in the source)

T1 sequence (O75116 whole entry, species assumed): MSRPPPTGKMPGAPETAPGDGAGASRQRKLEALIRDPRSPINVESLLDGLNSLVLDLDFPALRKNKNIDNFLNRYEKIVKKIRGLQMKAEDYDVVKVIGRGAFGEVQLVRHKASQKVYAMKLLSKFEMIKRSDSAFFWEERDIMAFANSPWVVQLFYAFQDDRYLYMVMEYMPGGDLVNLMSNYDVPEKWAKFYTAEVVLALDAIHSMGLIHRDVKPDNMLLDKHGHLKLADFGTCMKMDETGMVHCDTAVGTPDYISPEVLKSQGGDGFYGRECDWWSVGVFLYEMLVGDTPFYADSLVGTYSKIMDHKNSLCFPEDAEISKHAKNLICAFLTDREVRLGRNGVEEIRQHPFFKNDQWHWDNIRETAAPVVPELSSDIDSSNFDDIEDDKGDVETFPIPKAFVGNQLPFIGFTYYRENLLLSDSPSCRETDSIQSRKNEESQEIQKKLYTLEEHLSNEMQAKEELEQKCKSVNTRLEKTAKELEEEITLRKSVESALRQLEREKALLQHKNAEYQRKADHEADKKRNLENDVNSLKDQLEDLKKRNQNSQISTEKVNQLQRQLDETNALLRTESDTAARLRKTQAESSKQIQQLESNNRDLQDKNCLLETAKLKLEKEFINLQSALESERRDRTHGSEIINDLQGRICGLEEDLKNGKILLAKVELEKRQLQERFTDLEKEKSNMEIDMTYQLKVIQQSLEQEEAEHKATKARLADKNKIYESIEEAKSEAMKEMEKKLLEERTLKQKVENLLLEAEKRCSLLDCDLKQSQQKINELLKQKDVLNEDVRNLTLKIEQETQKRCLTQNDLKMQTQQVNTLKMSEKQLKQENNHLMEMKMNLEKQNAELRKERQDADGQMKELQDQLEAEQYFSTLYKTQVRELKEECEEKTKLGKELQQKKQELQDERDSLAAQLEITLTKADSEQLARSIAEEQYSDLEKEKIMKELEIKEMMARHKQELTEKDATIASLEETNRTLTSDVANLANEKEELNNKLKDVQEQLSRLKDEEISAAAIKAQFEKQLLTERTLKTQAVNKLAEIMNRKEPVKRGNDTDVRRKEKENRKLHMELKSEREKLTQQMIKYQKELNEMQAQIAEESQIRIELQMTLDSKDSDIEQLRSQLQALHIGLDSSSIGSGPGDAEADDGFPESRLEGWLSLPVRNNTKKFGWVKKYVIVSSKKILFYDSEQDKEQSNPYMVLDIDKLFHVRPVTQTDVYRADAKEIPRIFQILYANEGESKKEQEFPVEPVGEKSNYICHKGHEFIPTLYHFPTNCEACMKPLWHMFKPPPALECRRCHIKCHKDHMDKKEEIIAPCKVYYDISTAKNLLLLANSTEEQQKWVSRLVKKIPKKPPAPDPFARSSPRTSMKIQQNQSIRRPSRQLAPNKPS

IC50 (ROCK2 [2]; triplicate experiments) | IC50 (ROCK1; triplicate experiments) | SMILES | also measured
 |  | O=C(Nc1nc(-c2ccncc2)cs1)C1COc2ccccc2O1 (stereo not shown) [CID5056270, reference compound] | IC50 (ROCK2 [1]): < 0.003 µM; IC50 (ROCK2 [2]; values in nM): 0.56 nM; IC50 (ROCK1; values in nM): 13 nM; IC50 (Aurora-A): > 100 µM
55900 ± 11300 nM | 75500 nM | O=C(Nc1ccncc1)c1cccnc1 [Compound 3, N-(Pyridin-4-yl)nicotinamide] | 
221000 ± 25700 nM | 72500 ± 6800 nM | O=C(Nc1ccncc1)c1cnccc1Cl [Compound 4, 4-Chloro-N-(pyridin-4-yl)nicotinamide] | 
357000 ± 35300 nM | 270000 ± 51000 nM | O=C(Nc1ccncc1)c1cncc(Br)c1 [Compound 5, 5-Bromo-N-(pyridin-4-yl)nicotinamide] | 
 |  | Nc1ccc2[nH]ncc2c1 [Compound 8, 5-Aminoindazole] | IC50 (ROCK2 [2]): 120000 nM; IC50 (ROCK1): 181000 nM
36100 ± 5900 nM | 59000 nM | CN(C)C(=O)Nc1ccc2[nH]ncc2c1 [Compound 10, 3-(1H-Indazol-5-yl)-1,1-dimethylurea] | 
62000 nM | 157000 nM | O=C(Nc1ccccc1)Nc1ccc2[nH]ncc2c1 [Compound 11, 1-(1H-Indazol-5-yl)-3-phenylurea] | inhibition of invasion (figure legend) (MDA-MB-231 cells [3]): not; effect on cell invasion (MDA-MB-231 cells [3]; at 60 mM (so in the source), FIG. 8b): no effect; LPA-induced stress fiber formation (NIH 3T3 cells): not; bradykinin-induced filopodia formation (NIH 3T3 cells): not; inhibition of migration (wound-healing scratch assay) (MDA-MB-231 cells [4]; at 60 mM (so in the source)): did not inhibit; effect on anchorage independent growth (MDA-MB-231 cells [5]; at 60 mM (so in the source)): little effect
5500 ± 3100 nM | 14000 nM | O=C(NCc1ccccc1)Nc1ccc2[nH]ncc2c1 [Compound 12, 1-Benzyl-3-(1H-indazol-5-yl)urea] | IC50 (ROCK2 [6]): 0.26 µM
7500 ± 1700 nM | 21500 ± 7300 nM | CN(CCc1ccccc1)C(=O)Nc1ccc2[nH]ncc2c1 [Compound 13, 3-(1H-Indazol-5-yl)-1-methyl-1-phenethylurea] | 
2300 ± 600 nM | 4600 ± 2100 nM | O=C(Nc1ccc2[nH]ncc2c1)N[C@H](CO)Cc1ccccc1 [Compound 14, (S)-1-(1-Hydroxy-3-phenylpropan-2-yl)-3-(1H-indazol-5-yl)urea] | 
800 ± 300 nM | 2600 ± 600 nM | COc1ccc(CCNC(=O)Nc2ccc3[nH]ncc3c2)cc1 [Compound 16, 1-(1H-Indazol-5-yl)-3-(4-methoxyphenethyl)urea] | 
1100 ± 300 nM | 2200 ± 1000 nM | O=C(NCCc1ccc(Cl)cc1)Nc1ccc2[nH]ncc2c1 [Compound 17, 1-(4-Chlorophenethyl)-3-(1H-indazol-5-yl)urea] | 
 |  | O=C(NCCc1ccccc1)Nc1ccc2[nH]ncc2c1 [Compound 18, 1-(1H-Indazol-5-yl)-3-phenethylurea] | inhibition of invasion (figure legend) (MDA-MB-231 cells [3]): inhibits; IC50 (MDA-MB-231 cells [7]; Homo sapiens, MDA-MB-231, 72 h, unit given as mM): 0.032 mM; potency at anchorage-dependent proliferation compared to anchorage-independent growth (MDA-MB-231 cells [7]; MDA-MB-231): four-fold less potent; LPA-induced stress fiber formation (NIH 3T3 cells; listed as RKI-18): inhibits; PDGF-induced lamelipodia formation (NIH 3T3 cells; listed as RKI-18): inhibits; bradykinin-induced filopodia formation (NIH 3T3 cells; listed as RKI-18): inhibits; inhibition of migration (figure legend) (MDA-MB-231 cells [4]; FIG. 8): inhibits; inhibition of migration (wound-healing scratch assay) (MDA-MB-231 cells [4]; concentration-dependent manner starting at 3 mM (so in the source)): inhibited the migration; P-MLC2 levels ([8]; 10 μM): greatly decreased; inhibition of anchorage-independent growth (figure legend) (MDA-MB-231 cells [5]; MDA-MB-231, FIG. 7): inhibits; induction of apoptosis (caspase 3 activation and PARP cleavage) (MDA-MB-231 cells [9]): did not induce apoptosis
1070 nM | 2460 ± 550 nM | O=C(NCCCc1ccccc1)Nc1ccc2[nH]ncc2c1 [Compound 19, 1-(1H-indazol-5-yl)-3-(3-phenylpropyl)urea] | 
260 nM | 1150 nM | O=C(NCc1ccccc1)Nc1ccc(-c2ccncc2)cc1 [Compound 22, 1-Benzyl-3-(4-(pyridin-4-yl)phenyl)urea] | 
8000 nM | 9000 nM | O=C(Nc1ccc(-c2ccncc2)cc1)N[C@@H](CO)c1ccccc1 [Compound 23, (R)-1-(2-Hydroxy-1-phenylethyl)-3-(4-(pyridin-4-yl)phenyl)urea] | LE (Ligand Efficiency), ROCK2 (ROCK2 [2]): 0.28; IC50 (ROCK2 [2]; values in nM): 7520 nM; LE (Ligand Efficiency), ROCK1 (ROCK1): 0.28; P-MLC2 levels ([8]; 1 μM): no effect; P-MLC2 levels ([8]; 10 μM): less potent than 24
100 nM | 1700 nM | O=C(Nc1ccc(-c2ccncc2)cc1)N[C@H](CO)c1ccccc1 [Compound 24, (S)-1-(2-Hydroxy-1-phenylethyl)-3-(4-(pyridin-4-yl)phenyl)urea] | LE (Ligand Efficiency), ROCK2 (ROCK2 [2]): 0.38; fold more kinase inhibitory activity for ROCK 2 (ROCK2 [2]; 24 (S) versus 23 (R)): 75 fold; LE (Ligand Efficiency), ROCK1 (ROCK1): 0.31; fold difference for ROCK1 (ROCK1; 24 (S) versus 23 (R)): five fold; P-MLC2 levels ([8]; 1 μM): greatly decreased; P-MLC2 levels ([8]; 10 μM): greatly decreased
19800 ± 3290 nM | 2610 ± 410 nM | O=C(NCCc1ccccc1)Nc1ccc(-c2ccncc2)cc1 [Compound 25, 1-Phenethyl-3-(4-(pyridin-4-yl)phenyl)urea] | 
5360 nM | 1410 nM | O=C(Nc1ccc(-c2ccncc2)cc1)N[C@@H](CO)Cc1ccccc1 [Compound 26, (R)-1-(1-Hydroxy-3-phenylpropan-2-yl)-3-(4-(pyridin-4-yl)phenyl)urea] | 
32900 ± 4670 nM | 31000 ± 10500 nM | O=C(Nc1ccc(-c2ccncc2)cc1)N[C@H](CO)Cc1ccccc1 [Compound 27, (S)-1-(1-Hydroxy-3-phenylpropan-2-yl)-3-(4-(pyridin-4-yl)phenyl)urea] | 
40000 nM | 65000 nM | CC(=O)Nc1ccc2[nH]ncc2c1 [N-(1H-indazole-5-yl)acetamide] | 

SMILES | IC50 (ROCK2 [2]; triplicate experiments) | IC50 (ROCK1; triplicate experiments) | also measured
O=C(NCC(O)c1ccccc1)Nc1ccc2[nH]ncc2c1 (stereo not shown) [Compound 15, 1-(2-Hydroxy-2-phenylethyl)-3-(1H-indazol-5-yl)urea] |  | 2900 ± 800 nM | IC50 (ROCK2 [2]): 1500 ± 400 nM
